Experimental data taken from patent US11008340B2, “Modulators of ROR-gamma” (Vitae Pharmaceuticals, LLC, priority 2015, dated 2021).
Read-outs that look alike come from different tables or passages of the source.

Legend:
[1] = target: T1, full-length RORγt in Jurkat cells (Homo sapiens, UniProt P51449); test: RORγt 5×RORE Assay in Jurkat Cells (Assay 2); assay type: cell-based; conditions: 5×RORE luciferase reporter
T1 construct: transcriptional activity of the full-length RORγt in Jurkat cells; host or cells: Jurkat cells (ATCC TIB-152)
T1 sequence (P51449 1-497 isoform P51449-2): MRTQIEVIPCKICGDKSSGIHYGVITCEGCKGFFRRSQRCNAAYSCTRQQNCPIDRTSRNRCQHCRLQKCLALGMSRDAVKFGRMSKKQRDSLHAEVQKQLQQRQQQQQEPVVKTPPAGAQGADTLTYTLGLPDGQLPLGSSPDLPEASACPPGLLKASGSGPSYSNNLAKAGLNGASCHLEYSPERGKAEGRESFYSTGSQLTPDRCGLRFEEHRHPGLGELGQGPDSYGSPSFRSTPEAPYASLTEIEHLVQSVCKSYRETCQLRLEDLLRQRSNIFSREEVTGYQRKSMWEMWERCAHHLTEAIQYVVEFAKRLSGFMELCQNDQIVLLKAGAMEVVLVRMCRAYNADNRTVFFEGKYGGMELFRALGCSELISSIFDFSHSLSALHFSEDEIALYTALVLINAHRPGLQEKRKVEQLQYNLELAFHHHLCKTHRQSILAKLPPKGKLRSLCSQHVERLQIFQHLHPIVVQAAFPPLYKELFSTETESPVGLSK
Method: [formula] RORγt 5×RORE Assay in Jurkat Cells (Assay 2)
Compounds described herein were tested for RORγ inverse agonist activity in a cell-based, transcriptional activity assay. Secreted Nanoluc″ luciferase was used as a reporter for transcriptional activity of the full-length RORγt in Jurkat cells (ATCC, Cat. #TIB-152). A reporter plasmid was constructed by inserting 5 repeats of the ROR Response Element (RORE) […] (SEQ ID NO: 1) into a commercially available promoterless plasmid pNL1.3[secNluc] (Promega, Cat. #N1021) using KpnI and HindIII restriction sites. The expression plasmid for RORγt was purchased (Geneocopoeia, Cat. #EX-T6988-M02). Jurkat cells (30 million cells) were transfected with 11 μg of EX-T6988-MO2 and 26 μg of the reporter plasmid in OptiMEM® media using Lipofectamine LTX and Plus™ reagents (Life Technologies, Cat. #15338-100). After 5-6 hrs of incubation at 37° C./5% CO2, the cells were collected, resuspended in phenol-red free RPMI media containing 10% (v/v) delipidated FBS (Hyclone, Cat. #SH30855.03) and dispensed into 96-well clear bottom tissue culture plates (CoStar, Cat. #3603), at 80,000 cells per well. Tested compounds were added to the cells in the same media (final concentration of DMSO was 0.1% (v/v)), and the plates were incubated at 37° C./5% CO2 for 16-18 hrs. Luciferase activity in the conditioned supernatants was determined with NanoGlo® assay reagents (Promega, Cat. #N1130).

[2] = target: T2, recombinant RORγ Ligand Binding Domain (LBD) protein (Homo sapiens, UniProt P51449); test: Radio-Ligand RORγ Binding Assay (Assay 1); conditions: radio-ligand competition, RORγ LBD, read-out: Avg ROR Bind Ki
T2 construct: 6×His; GST
T2 sequence (P51449 269-508 limits assumed): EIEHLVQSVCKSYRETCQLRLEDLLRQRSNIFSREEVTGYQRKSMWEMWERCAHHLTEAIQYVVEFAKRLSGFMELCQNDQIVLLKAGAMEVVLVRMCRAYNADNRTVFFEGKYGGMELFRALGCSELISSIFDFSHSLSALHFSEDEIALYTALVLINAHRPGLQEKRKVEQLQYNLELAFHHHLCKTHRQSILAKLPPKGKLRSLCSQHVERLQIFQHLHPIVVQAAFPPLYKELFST
Method in brief: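 Cell-free SPA competition between compound and 25-hydroxy[26,27-^3H]-cholesterol for 6×His-GST-tagged RORγ LBD in 50 mM HEPES pH 7.4 with NaCl, MgCl2, glycerol, CHAPS, octylglucoside and DTT. Mix was shaken 20 min, held 10 min at rt, then read after poly-Lys YSi beads. IC50 came from a four-parameter fit, and Ki from radioligand KD.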

[3] = Table 20, read-out: Avg ROR γt/5x IC5
[4] = 25-hydroxy [26,27-3H]-cholesterol
[5] = head without unit (Tables 15, 17), read-out: Avg ROR γt/5x IC50
[6] = head without unit (Tables 15, 17)

`CCS(=O)(=O)c1ccc(CNC(=O)c2ccc3c(c2)CN(c2ncc(-c4ccc(=O)n(C)c4)cn2)C[C@H]3C(C)C)cc1` (single isomer, unassigned) [Hy7-24.1] was tested. Which IC50 [1, 3] did it give?
The IC50 was less than 100 nM.

What about the Ki [2, 4] of the same compound?
The Ki was less than 100 nM.

Which results are given for `CCS(=O)(=O)c1ccc([C@@H](CO)NC(=O)c2ccc3c(OC[C@H]4CC[C@H](C(F)(F)F)CC4)nc(C)cc3c2)nc1` (single isomer, unassigned) [Hy1A-22.2]?
IC50 ([1]; read-out: Avg ROR γt/5x IC50): 100 to 1000 nM; Ki [2, 4]: < 100 nM

For `CCS(=O)(=O)c1ccc(CNC(=O)c2ccc3c(c2)CCN(Cc2ccc(Cl)cc2)C3C(C)C)cc1` (racemic) [Hy2A-19, 2-(4-chlorobenzyl)-N-(4-(ethylsulfonyl)benzyl)-1-isopropyl-1,2,3,4-tetrahydroisoquinoline-6-carboxamide], which IC50 ([1]; read-out: Avg ROR γt/5x IC50) is on record?
The IC50 was less than 100 nM.

What about the Ki [2, 4] of the same compound?
Its Ki is less than 100 nM.

With `CC[C@H]1CN(c2ncc(C3CC3)cn2)Cc2cc(C(=O)N[C@@H](CO)c3ccc(S(=O)(=O)CC)cc3)ccc21` (single isomer, unassigned) [Hy7-11.2] as the compound, how does the IC50 [1, 3] read?
The IC50 was greater than 1000 nM.

What about the Ki [2, 4] of the same compound?
The Ki was less than 100 nM.

`CCOc1cnc(N2Cc3cc(C(=O)NCc4ccc(S(=O)(=O)CC)cc4)ccc3[C@H](C(C)C)C2)nc1` (single isomer, unassigned) [Hy7-5.1] was tested. Which IC50 [1, 3] did it give?
Its IC50 is 100 to 1000 nM.

And the Ki [2, 4]?
The Ki was less than 100 nM.

For `CCS(=O)(=O)c1ccc(CNC(=O)c2cnc3c(c2)CCN(Cc2ccc(F)cc2)C3C(C)C)cc1` (single isomer, unassigned) [Hy2B-6.1], which IC50 [1, 5] is on record?
The IC50 was greater than 1000 nM.

What about the Ki [2, 6] of the same compound?
Its Ki is less than 100 nM.

How did the IC50 ([1]; read-out: Avg ROR γt/5x IC50) turn out when `CCS(=O)(=O)c1ccc([C@H](CO)NC(=O)c2ccc3c(OC[C@H]4CC[C@H](C(F)(F)F)CC4)nc(OC)cc3c2)cc1` [Hy1A-23, N-((R)-1-(4-(ethylsulfonyl)phenyl)-2-hydroxyethyl)-3-methoxy-1-(((1r,4R)-4-(trifluoromethyl)cyclohexyl)methoxy)isoquinoline-6-carboxamide] was run?
Its IC50 is less than 100 nM.

And the Ki [2, 4]?
Its Ki is less than 100 nM.

Which IC50 [1, 3] does the source give for `CCS(=O)(=O)c1ccc(CNC(=O)c2ccc3c(c2)CN(c2ncc(C4CC4)cn2)C[C@H]3C(C)C)cc1` (single isomer, unassigned) [Hy7-4.1] here?
The IC50 was 100 to 1000 nM.

What about the Ki [2, 4] of the same compound?
Its Ki is less than 100 nM.

Which results are given for `CCS(=O)(=O)c1ccc(CNC(=O)c2ccc3c(c2)CN(c2ncc(C#N)cn2)C[C@H]3C(C)C)cc1` (single isomer, unassigned) [Hy7-2.1]?
IC50 [1, 3]: 100 to 1000 nM; Ki [2, 4]: < 100 nM

How did the IC50 [1, 3] turn out when `CC[C@@H]1CN(c2ncc(-c3cccc(OC)n3)cn2)Cc2cc(C(=O)NCc3ccc(S(=O)(=O)CC)cc3)ccc21` (single isomer, unassigned) [Hy7-20.1] was run?
Its IC50 is less than 100 nM.

And the Ki [2, 4]?
Its Ki is less than 100 nM.

Which IC50 [1, 3] does the source give for `CCS(=O)(=O)c1ccc(CNC(=O)c2ccc3c(c2)CN(Cc2ccc(C#N)cc2)C[C@@H]3C(C)C)cc1` (single isomer, unassigned) [Hy7-28.2] here?
The IC50 was less than 100 nM.

And the Ki [2, 4]?
Its Ki is less than 100 nM.

What does the source list for `CCS(=O)(=O)c1ccc([C@H](CO)NC(=O)c2ccc3c(OC[C@H]4CC[C@H](C(F)(F)F)CC4)nc(C4CC4)cc3c2)cc1` [Hy1A-21, 3-cyclopropyl-N-((R)-1-(4-(ethylsulfonyl)phenyl)-2-hydroxyethyl)-1-(((1r,4R)-4-(trifluoromethyl)cyclohexyl)methoxy)isoquinoline-6-carboxamide]?
IC50 ([1]; read-out: Avg ROR γt/5x IC50): < 100 nM; Ki [2, 4]: < 100 nM

For `CCS(=O)(=O)c1ccc([C@H](CO)NC(=O)c2sc3nc(C)nc(OC[C@H]4CC[C@H](C(F)(F)F)CC4)c3c2C)cc1` [Hy6-4, N-((R)-1-(4-(ethylsulfonyl)phenyl)-2-hydroxyethyl)-2,5-dimethyl-4-(((1r,4R)-4-(trifluoromethyl)cyclohexyl)methoxy)thieno[2,3-d]pyrimidine-6-carboxamide], which IC50 ([1]; read-out: Avg ROR γt/5x IC50) is on record?
Its IC50 is less than 100 nM.

What about the Ki [2, 4] of the same compound?
The Ki was less than 100 nM.

`CC[C@@H]1CN(c2ncc(C(F)(F)F)cn2)Cc2cc(C(=O)N[C@@H](CO)c3ccc(S(=O)(=O)CC)cn3)ccc21` (single isomer, unassigned) [Hy7-18.1] was tested. Which IC50 [1, 3] did it give?
The IC50 was less than 100 nM.

And the Ki [2, 4]?
Its Ki is less than 100 nM.

Which results are given for `CCS(=O)(=O)c1ccc([C@H](CO)NC(=O)c2ccc3c(OCc4ccc(C(F)(F)F)cc4)nccc3c2)cc1` [Hy1A-7, (R)-N-(1-(4-(ethylsulfonyl)phenyl)-2-hydroxyethyl)-1-((4-(trifluoromethyl)benzyl)oxy)isoquinoline-6-carboxamide]?
IC50 ([1]; read-out: Avg ROR γt/5x IC50): 100 to 1000 nM; Ki [2, 4]: < 100 nM

How did the IC50 ([1]; read-out: Avg ROR γt/5x IC50) turn out when `CCOC(=O)c1cnc(N2CCc3cc(C(=O)NCc4ccc(S(=O)(=O)CC)cc4)ccc3C2C(C)C)nc1C(F)(F)F` (racemic) [Hy2A-5, ethyl 2-(6-((4-(ethylsulfonyl)benzyl)carbamoyl)-1-isopropyl-3,4-dihydroisoquinolin-2(1H)-yl)-4-(trifluoromethyl)pyrimidine-5-carboxylate] was run?
Its IC50 is 100 to 1000 nM.

What about the Ki [2, 4] of the same compound?
The Ki was 100 to 1000 nM.

How did the IC50 ([1]; read-out: Avg ROR γt/5x IC50) turn out when `CCC1c2ccc(C(=O)NC(CO)c3ccc(S(=O)(=O)CC)cc3)cc2CCN1CC1CCC(C(F)(F)F)CC1` (single isomer, unassigned) [Hy2A-28.2] was run?
The IC50 was 100 to 1000 nM.

And the Ki [2, 4]?
The Ki was less than 100 nM.

What does the source list for `CCS(=O)(=O)c1ccc(CNC(=O)c2ccc3c(c2)CCN(Cc2ccc(C#N)cn2)[C@H]3C(C)C)cc1` (single isomer, unassigned) [Hy2A-16.1]?
IC50 ([1]; read-out: Avg ROR γt/5x IC50): < 100 nM; Ki [2, 4]: < 100 nM

With `CCS(=O)(=O)c1ccc(CNC(=O)c2cc3ccnc(OC[C@H]4CC[C@H](C(F)(F)F)CC4)c3n2C)cc1` [Hy4-1, N-(4-(ethylsulfonyl)benzyl)-1-methyl-7-(((1r,4r)-4-(trifluoromethyl)cyclohexyl)methoxy)-1H-pyrrolo[2,3-c]pyridine-2-carboxamide] as the compound, how does the IC50 [1, 5] read?
Its IC50 is 100 to 1000 nM.

What about the Ki [2, 6] of the same compound?
The Ki was less than 100 nM.

Which IC50 [1, 5] does the source give for `CCS(=O)(=O)c1ccc(CNC(=O)c2cc3ccnc(OCc4ccc(C(F)(F)F)cc4)c3n2C)cc1` [Hy4-3, N-(4-(ethylsulfonyl)benzyl)-1-methyl-7-((4-(trifluoromethyl)benzyl)oxy)-1H-pyrrolo[2,3-c]pyridine-2-carboxamide] here?
The IC50 was 100 to 1000 nM.

And the Ki [2, 6]?
Its Ki is less than 100 nM.

With `CCS(=O)(=O)c1ccc([C@H](CO)NC(=O)c2ccc3c(OCc4ccc(C(F)(F)F)cc4)cc(C)nc3c2)cc1` [Hy1B-3, (R)-N-(1-(4-(ethylsulfonyl)phenyl)-2-hydroxyethyl)-2-methyl-4-((4-(trifluoromethyl)benzyl)oxy)quinoline-7-carboxamide] as the compound, how does the IC50 ([1]; read-out: Avg ROR γt/5x IC50) read?
Its IC50 is 100 to 1000 nM.

What about the Ki [2, 4] of the same compound?
Its Ki is less than 100 nM.

Which results are given for `CC[C@H]1CN(c2ncc(-c3ncco3)cn2)Cc2cc(C(=O)NCc3ccc(S(=O)(=O)CC)cc3)ccc21` (single isomer, unassigned) [Hy7-31.2]?
IC50 [1, 3]: > 1000 nM; Ki [2, 4]: < 100 nM

Which results are given for `CC[C@@H]1CN(c2ncc(-c3ncco3)cn2)Cc2cc(C(=O)N[C@@H](CO)c3ccc(S(=O)(=O)CC)cc3)ccc21` (single isomer, unassigned) [Hy7-33.1]?
IC50 [1, 3]: < 100 nM; Ki [2, 4]: < 100 nM

With `CC[C@@H]1CN(c2ncc(C(F)(F)F)cn2)Cc2cc(C(=O)NCc3ccc(S(=O)(=O)CC)cc3)ccc21` (single isomer, unassigned) [Hy7-9.1] as the compound, how does the IC50 [1, 3] read?
Its IC50 is less than 100 nM.

And the Ki [2, 4]?
Its Ki is less than 100 nM.

Which IC50 ([1]; read-out: Avg ROR γt/5x IC50) does the source give for `CCS(=O)(=O)c1ccc(CNC(=O)c2ccc3c(c2)CCN(Cc2ccc(Cl)cn2)C3C(C)C)cc1` (racemic) [Hy2A-21, 2-((5-chloropyridin-2-yl)methyl)-N-(4-(ethylsulfonyl)benzyl)-1-isopropyl-1,2,3,4-tetrahydroisoquinoline-6-carboxamide] here?
The IC50 was less than 100 nM.

What about the Ki [2, 4] of the same compound?
The Ki was less than 100 nM.

Which IC50 ([1]; read-out: Avg ROR γt/5x IC50) does the source give for `CCS(=O)(=O)c1ccc(CNC(=O)c2ccc3c(c2)CCN(Cc2ccc(C#N)nc2)[C@H]3C(C)C)cc1` (single isomer, unassigned) [Hy2A-17.1] here?
The IC50 was less than 100 nM.

What about the Ki [2, 4] of the same compound?
Its Ki is less than 100 nM.
